Test: Related substance A content of the trimebutine maleate drug substance used
Type: physicochemical
Settings: drug substance used in this study

CCC(COC(=O)c1cc(OC)c(OC)c(OC)c1)(c1ccccc1)N(C)C (stereo not shown) [トリメブチンマレイン酸塩]
content of related substance A in the trimebutine maleate drug substance: 0.06%
